Results: PubChem BioAssay (NCI)
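Grown in 96-well plates, cells were treated for 48 hours with each compound at five concentrations. Insufficient inhibition: endpoint recorded as highest concentration tested. The concentration for 50% growth inhibition is given as GI50. TGI marks complete inhibition of growth.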

How the values were obtained:
Test in all cases: NCI anticancer screen, dose series, 48 h
U251 CNS = tested on: U251 CNS
SF-268 CNS = tested on: SF-268 CNS
OVCAR-4 ovarian = tested on: OVCAR-4 ovarian
M14 melanoma = tested on: M14 melanoma
OVCAR-8 ovarian = tested on: OVCAR-8 ovarian
NCI-H226 lung = tested on: NCI-H226 lung
SF-539 CNS = tested on: SF-539 CNS
COLO 205 colon = tested on: COLO 205 colon
MALME-3M melanoma = tested on: MALME-3M melanoma
HS 578T breast = tested on: HS 578T breast

Cc1cc(NS(=O)(=O)c2ccc(NC(=O)COC(=O)c3cccc4c(=O)c5ccccc5[nH]c34)cc2)no1
TGI (U251 CNS): > 100 µM
TGI (SF-268 CNS): > 100 µM
TGI (OVCAR-4 ovarian): > 100 µM
TGI (M14 melanoma): > 100 µM
TGI (OVCAR-8 ovarian): > 100 µM
TGI (NCI-H226 lung): > 100 µM
TGI (SF-539 CNS): > 100 µM
TGI (COLO 205 colon): > 100 µM
TGI (MALME-3M melanoma): > 100 µM

Cc1ccc(C)c2c(N=Nc3ccccc3[N+](=O)[O-])c(O)[nH]c12
TGI (U251 CNS): > 100 µM
TGI (SF-268 CNS): > 100 µM
TGI (OVCAR-4 ovarian): > 100 µM
TGI (M14 melanoma): > 100 µM
TGI (SF-539 CNS): > 100 µM
TGI (COLO 205 colon): > 100 µM
TGI (HS 578T breast): > 100 µM

O=C(COc1ccc(-c2nc3cc(Cl)c(Cl)cc3[nH]2)cc1)N=Nc1c(O)[nH]c2ccccc12
GI50 (U251 CNS): 0.564 µM
TGI (U251 CNS): 2.1 µM
GI50 (M14 melanoma): 4.17 µM
TGI (M14 melanoma): > 100 µM
GI50 (OVCAR-8 ovarian): 1.55 µM
TGI (OVCAR-8 ovarian): > 100 µM
GI50 (SF-539 CNS): 2.65 µM
TGI (SF-539 CNS): 24.2 µM
GI50 (COLO 205 colon): 2.29 µM
TGI (COLO 205 colon): > 100 µM
GI50 (HS 578T breast): 1.61 µM
TGI (HS 578T breast): 5.68 µM

Cc1cc(NS(=O)(=O)c2ccc(Nc3c4ccccc4nc4c(C(=O)Nc5ccc(S(=O)(=O)N=C(N)N)cc5)ccc(Cl)c34)cc2)no1
TGI (U251 CNS): > 100 µM
TGI (SF-268 CNS): 63.2 µM
TGI (OVCAR-4 ovarian): 85.6 µM
TGI (M14 melanoma): > 100 µM
TGI (OVCAR-8 ovarian): 38.5 µM
TGI (NCI-H226 lung): 97.8 µM
TGI (SF-539 CNS): 41.7 µM
TGI (COLO 205 colon): > 100 µM
TGI (MALME-3M melanoma): > 100 µM

CC(=O)c1cccc(NC(=O)c2ccc(NC3=C(Cl)C(=O)N(Cc4ccccc4)C3=O)cc2)c1
GI50 (U251 CNS): 17.9 µM
TGI (U251 CNS): 44.5 µM
GI50 (SF-268 CNS): 22.2 µM
TGI (SF-268 CNS): 98.9 µM
GI50 (OVCAR-4 ovarian): 24.9 µM
TGI (OVCAR-4 ovarian): 92.2 µM
GI50 (M14 melanoma): 17.1 µM
TGI (M14 melanoma): 33.3 µM
GI50 (OVCAR-8 ovarian): 14.3 µM
TGI (OVCAR-8 ovarian): 50.7 µM
GI50 (NCI-H226 lung): 9.9 µM
TGI (NCI-H226 lung): 28.1 µM
GI50 (SF-539 CNS): 11.4 µM
TGI (SF-539 CNS): 28.7 µM
GI50 (COLO 205 colon): 29.2 µM
TGI (COLO 205 colon): > 100 µM
GI50 (HS 578T breast): 22.6 µM
TGI (HS 578T breast): 88.7 µM

Brc1ccc(C2SCc3nc4ccccc4n32)cc1 (centres undefined)
TGI (U251 CNS): 25.2 µM
TGI (SF-268 CNS): 32.9 µM
TGI (OVCAR-4 ovarian): 27.4 µM
TGI (M14 melanoma): 25.5 µM
TGI (OVCAR-8 ovarian): 26.6 µM
TGI (NCI-H226 lung): 34.1 µM
TGI (SF-539 CNS): 34.3 µM
TGI (COLO 205 colon): 27.3 µM
TGI (MALME-3M melanoma): 30.2 µM

O=C(NC(=O)c1cc2cc(Br)cc(Br)c2oc1=O)Oc1ccccc1
TGI (U251 CNS): > 100 µM
TGI (SF-268 CNS): > 100 µM
TGI (OVCAR-4 ovarian): > 100 µM
TGI (M14 melanoma): > 100 µM
TGI (OVCAR-8 ovarian): > 100 µM
TGI (NCI-H226 lung): > 100 µM
TGI (SF-539 CNS): > 100 µM
TGI (COLO 205 colon): > 100 µM
TGI (MALME-3M melanoma): > 100 µM

Cc1ccc(S(=O)(=O)SCc2ccccc2)cc1
TGI (U251 CNS): 58.8 µM
TGI (SF-268 CNS): > 85.7 µM
TGI (OVCAR-4 ovarian): 31.4 µM
TGI (M14 melanoma): 39.7 µM
TGI (OVCAR-8 ovarian): 33.4 µM
TGI (NCI-H226 lung): 40.9 µM
TGI (SF-539 CNS): 45.7 µM
TGI (COLO 205 colon): 27.4 µM
TGI (MALME-3M melanoma): 81.5 µM

CN1C(=O)C(=CN(C)c2ccccc2)C(=O)N(C)C1=O
TGI (U251 CNS): > 100 µM
TGI (OVCAR-4 ovarian): > 100 µM
TGI (M14 melanoma): > 100 µM
TGI (OVCAR-8 ovarian): > 100 µM
TGI (NCI-H226 lung): > 100 µM
TGI (SF-539 CNS): > 100 µM
TGI (MALME-3M melanoma): > 100 µM

CC12CC(Sc3ccccc3N1)c1ccccc1O2 (centres undefined)
TGI (U251 CNS): 26 µM
TGI (SF-268 CNS): 30.4 µM
TGI (OVCAR-4 ovarian): 31.2 µM
TGI (M14 melanoma): 37.6 µM
TGI (OVCAR-8 ovarian): 33.3 µM
TGI (SF-539 CNS): 32.5 µM
TGI (COLO 205 colon): 29.9 µM
TGI (MALME-3M melanoma): 30.1 µM

O=C(Sc1sc(=S)sc1SC(=O)c1ccccc1)c1ccccc1
TGI (U251 CNS): 80.7 µM
TGI (SF-268 CNS): > 100 µM
TGI (OVCAR-4 ovarian): > 100 µM
TGI (M14 melanoma): > 100 µM
TGI (OVCAR-8 ovarian): > 100 µM
TGI (SF-539 CNS): > 100 µM
TGI (COLO 205 colon): > 100 µM
TGI (MALME-3M melanoma): > 100 µM

Cc1ccc(C(=O)N=Nc2c(O)[nH]c3ccc(Cl)cc23)cc1
GI50 (U251 CNS): 21.5 µM
TGI (U251 CNS): > 50 µM
GI50 (SF-268 CNS): 25.4 µM
TGI (SF-268 CNS): > 50 µM
GI50 (OVCAR-4 ovarian): 6.82 µM
TGI (OVCAR-4 ovarian): 18 µM
GI50 (M14 melanoma): 22.7 µM
TGI (M14 melanoma): > 50 µM
GI50 (OVCAR-8 ovarian): 10.8 µM
TGI (OVCAR-8 ovarian): 32.4 µM
GI50 (NCI-H226 lung): 7.4 µM
TGI (NCI-H226 lung): 24.6 µM
GI50 (SF-539 CNS): > 50 µM
TGI (SF-539 CNS): > 50 µM
GI50 (COLO 205 colon): 19 µM
TGI (COLO 205 colon): > 50 µM
GI50 (HS 578T breast): > 50 µM
TGI (HS 578T breast): > 50 µM

CCCCN1CCN(c2ccc3nc(-c4ccc5nc(-c6ccc(OCC)c(OCC)c6)[nH]c5c4)[nH]c3c2)CC1
GI50 (U251 CNS): 1.28 µM
TGI (U251 CNS): 2.69 µM
GI50 (SF-268 CNS): 2.66 µM
TGI (SF-268 CNS): 22 µM
GI50 (OVCAR-4 ovarian): 1.48 µM
TGI (OVCAR-4 ovarian): 3.21 µM
GI50 (M14 melanoma): 0.314 µM
TGI (M14 melanoma): 1.55 µM
GI50 (NCI-H226 lung): 1.29 µM
TGI (NCI-H226 lung): 3.95 µM
GI50 (SF-539 CNS): 1.26 µM
TGI (SF-539 CNS): 2.56 µM
GI50 (COLO 205 colon): 0.231 µM
TGI (COLO 205 colon): 1.52 µM

COc1ccc(C#CC2=C(c3cc(OC)c(OC)c(OC)c3)C(=O)OC2)cc1
GI50 (U251 CNS): 1.64 µM
TGI (U251 CNS): 6.74 µM
GI50 (SF-268 CNS): 2.23 µM
TGI (SF-268 CNS): > 50 µM
GI50 (OVCAR-4 ovarian): 1.51 µM
TGI (OVCAR-4 ovarian): > 50 µM
GI50 (M14 melanoma): > 50 µM
TGI (M14 melanoma): > 50 µM
GI50 (OVCAR-8 ovarian): 3.23 µM
TGI (OVCAR-8 ovarian): 22.5 µM
GI50 (NCI-H226 lung): 7.88 µM
TGI (NCI-H226 lung): 27.1 µM
GI50 (SF-539 CNS): 1.29 µM
TGI (SF-539 CNS): 3.26 µM
GI50 (COLO 205 colon): 4.15 µM
TGI (COLO 205 colon): > 50 µM
GI50 (HS 578T breast): 13.1 µM
TGI (HS 578T breast): > 50 µM

Cc1cc2c(=O)cc(-c3ccc(F)cc3)oc2c(C(=O)O)c1C
TGI (U251 CNS): > 100 µM
TGI (SF-268 CNS): > 100 µM
TGI (OVCAR-4 ovarian): > 100 µM
TGI (M14 melanoma): > 100 µM
TGI (OVCAR-8 ovarian): > 100 µM
TGI (NCI-H226 lung): > 100 µM
TGI (SF-539 CNS): > 100 µM
TGI (COLO 205 colon): > 100 µM
TGI (MALME-3M melanoma): > 100 µM
